Reference: patent publication US20230167127A1, “COMPOUNDS AND THEIR USE IN THE TREATMENT OF BACTERIAL INFECTION” (Hoffmann-La Roche Inc., priority 2020, published 2023)

system: Escherichia coli ATCC 25922; experiment: 50% growth inhibitory concentration (IC50) determination, Iso-Sensitest broth dilution; assay type: cell-based; settings: Escherichia coli, ATCC25922, 16 h, strain Escherichia coli ATCC 25922; 10-point broth dilution, optical density at 600 nm over 16 h; read-out: Escherichia coli growth inhibition IC50
Outline: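 Growth was tracked as optical density at 600 nm every 20 minutes for 16 h at 35±2° C. Compounds from DMSO stocks were serially diluted twofold over 10 points (e.g. 50–0.097 μM final) in Iso-Sensitest broth. Inhibition computed in log-phase growth to give IC50.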

For `Cc1ncc(F)c2c1C[C@H](CNCC[C@@H]1CN(c3cnc4c(n3)NC(=O)CO4)C(=O)O1)C2` [Example 430], which IC50 is on record?
Its IC50 is under 0.0977 µM.

`N#Cc1cccc2c1CC(CNCCC1(CN)CN(c3ccc4c(n3)NC(=O)CO4)C(=O)O1)C2` (stereo not shown) [Example 243, 2-[[2-[5-(aminomethyl)-2-oxo-3-(3-oxo-4H-pyrido[3,2-b][1,4]oxazin-6-yl)-1,3-oxazolidin-5-yl]ethylamino]methyl]-2,3-dihydro-1H-indene-4-carbonitrile] was tested. Which IC50 did it give?
Its IC50 is 0.199 µM.

How did the IC50 turn out when `CNC(=O)COc1nc(C#N)c2c(c1C)CC(CNCCC1CN(c3ccc4c(n3)NC(=O)CO4)C(=O)O1)C2` (stereo not shown) [Example 221, 2-((1-Cyano-4-methyl-6-(((2-(2-oxo-3-(3-oxo-3,4-dihydro-2H-pyrido[3,2-b][1,4]oxazin-6-yl)oxazolidin-5-yl)ethyl)amino)methyl)-6,7-dihydro-5H-cyclopenta[c]pyridin-3-yl)oxy)-N-methylacetamide] was run?
The IC50 was 0.302 µM.

`N#Cc1cccc2c1CC(CNCC1CN(c3ccc4c(n3)NC(=O)CO4)C(=O)O1)C2N` (racemic) [Example 229, rac-1,2-trans-1-Amino-2-((((2-oxo-3-(3-oxo-3,4-dihydro-2H-pyrido[3,2-b][1,4]oxazin-6-yl)oxazolidin-5-yl)methyl)amino)methyl)-2,3-dihydro-1H-indene-4-carbonitrile] was tested. Which IC50 did it give?
Its IC50 is 1.57 µM.

With `O=C1COc2ncc(N3CC4(CCN(CC5Cc6c(F)cc(OCc7cc[nH]n7)c(F)c6C5)CC4)OC3=O)nc2N1` (stereo not shown) [Example 396, 6-[8-[[4,7-difluoro-5-(1H-pyrazol-3-ylmethoxy)-2,3-dihydro-1H-inden-2-yl]methyl]-2-oxo-1-oxa-3,8-diazaspiro[4.5]decan-3-yl]-4H-pyrazino[2,3-b][1,4]oxazin-3-one] as the compound, how does the IC50 read?
The IC50 was 0.161 µM.

Which IC50 does the source give for `Cc1nc(OCC2CNC(=O)CO2)c(C)c2c1CC(CNCCC1CN(c3ccc4c(n3)NC(=O)CO4)C(=O)O1)C2` (stereo not shown) [Example 101, 6-[5-[2-[[1,4-dimethyl-3-[(5-oxomorpholin-2-yl)methoxy]-6,7-dihydro-5H-cyclopenta[c]pyridin-6-yl]methylamino]ethyl]-2-oxo-1,3-oxazolidin-3-yl]-4H-pyrido[3,2-b][1,4]oxazin-3-one] here?
Its IC50 is 1.39 µM.

How did the IC50 turn out when `Cc1ncc(F)c2c1C[C@@H](CNCC[C@H]1CN(c3cnc4c(n3)NC(=O)CO4)C(=O)O1)C2` [Example 428, 6-[(5S)-5-[2-[[(6R)-4-fluoro-1-methyl-6,7-dihydro-5H-cyclopenta[c]pyridin-6-yl]methylamino]ethyl]-2-oxo-1,3-oxazolidin-3-yl]-4H-pyrazino[2,3-b][1,4]oxazin-3-one] was run?
The IC50 was under 0.0977 µM.

Which IC50 does the source give for `CN(C)CCOc1cc(F)c2c(c1)CC(CNCCC1CN(c3cnc4c(n3)NC(=O)CO4)C(=O)O1)C2` (stereo not shown) [Example 272, 6-[5-[2-[[6-[2-(Dimethylamino)ethoxy]-4-fluoro-2,3-dihydro-H-inden-2-yl]methylamino]ethyl]-2-oxo-1,3-oxazolidin-3-yl]-4H-pyrazino[2,3-b][1,4]oxazin-3-one; formic acid] here?
Its IC50 is under 0.0977 µM.

`Cc1cc(OCC2(N)CC2)c(C)c2c1CC(CNCCC1CN(c3cnc4c(n3)NC(=O)CO4)C(=O)O1)C2` (stereo not shown) [Example 253, 6-[5-[2-[[5-[(1-Aminocyclopropyl)methoxy]-4,7-dimethyl-2,3-dihydro-1H-inden-2-yl]methylamino]ethyl]-2-oxo-1,3-oxazolidin-3-yl]-4H-pyrazino[2,3-b][1,4]oxazin-3-one; formic acid] was tested. Which IC50 did it give?
The IC50 was under 0.0977 µM.

Which IC50 does the source give for `O=C1COc2ccc(N3CC(CCNCC4(O)Cc5cccc(Cl)c5C4)OC3=O)nc2N1` (stereo not shown) [Example 232, 6-[5-[2-[(4-Chloro-2-hydroxy-1,3-dihydroinden-2-yl)methylamino]ethyl]-2-oxo-1,3-oxazolidin-3-yl]-4H-pyrido[3,2-b][1,4]oxazin-3-one; formic acid] here?
Its IC50 is 0.495 µM.

Which IC50 does the source give for `NC1c2cccc(F)c2CC1CNCCC1CN(c2ccc3c(n2)NC(=O)CS3)C(=O)O1` (racemic) [Example 165, 5-[2-[(rac-1,2-trans-1-amino-4-fluoro-2,3-dihydro-1H-inden-2-yl)methylamino]ethyl]-3-(3-oxo-4H-pyrido[3,2-b][1,4]thiazin-6-yl)-1,3-oxazolidin-2-one; formic acid] here?
The IC50 was under 0.0977 µM.

For `NC1c2cc(OCC3(N)CC3)cc(Cl)c2CC1CNCCC1CN(c2ccc3c(n2)NC(=O)CO3)C(=O)O1` (racemic) [Example 273, 6-[2-Oxo-5-[2-[[rac-1,2-trans-1-amino-6-[(1-aminocyclopropyl)methoxy]-4-chloro-2,3-dihydro-1H-inden-2-yl]methylamino]ethyl]-1,3-oxazolidin-3-yl]-4H-pyrido[3,2-b][1,4]oxazin-3-one; formic acid], which IC50 is on record?
The IC50 was 0.148 µM.

With `N#Cc1cccc2c1CC(CNCCC1CN(c3cnc4c(c3)NC(=O)CO4)C(=O)O1)C2` (stereo not shown) [Example 46, 2-[[2-[2-oxo-3-(2-oxo-1H-pyrido[2,3-b][1,4]oxazin-7-yl)-1,3-oxazolidin-5-yl]ethylamino]methyl]-2,3-dihydro-1H-indene-4-carbonitrile] as the compound, how does the IC50 read?
Its IC50 is 0.356 µM.

With `CC(N)COc1cc(F)c2c(c1)CC(CNCCC1CN(c3ccc4c(n3)NC(=O)CO4)C(=O)O1)C2` (stereo not shown) [Example 154, 6-[5-[2-[[6-(2-aminopropoxy)-4-fluoro-2,3-dihydro-1H-inden-2-yl]methylamino]ethyl]-2-oxo-1,3-oxazolidin-3-yl]-4H-pyrido[3,2-b][1,4]oxazin-3-one] as the compound, how does the IC50 read?
Its IC50 is under 0.0977 µM.

How did the IC50 turn out when `NC1(COc2cc(F)c3c(c2F)CC(CNCCC2CN(c4ccc5c(n4)NC(=O)CO5)C(=O)O2)C3)CC1` (stereo not shown) [Example 409, 6-[5-[2-[[5-[(1-aminocyclopropyl)methoxy]-4,7-difluoro-2,3-dihydro-1H-inden-2-yl]methylamino]ethyl]-2-oxo-1,3-oxazolidin-3-yl]-4H-pyrido[3,2-b][1,4]oxazin-3-one; formic acid] was run?
Its IC50 is under 0.0977 µM.

Which IC50 does the source give for `O=C1COc2ncc(N3CC(CCNCC4Cc5cc(OCCn6ccnn6)cc(F)c5C4)OC3=O)nc2N1` (stereo not shown) [Example 344, 6-[5-[2-[[4-fluoro-6-[2-(triazol-1-yl)ethoxy]-2,3-dihydro-1H-inden-2-yl]methylamino]ethyl]-2-oxo-1,3-oxazolidin-3-yl]-4H-pyrazino[2,3-b][1,4]oxazin-3-one; formic acid] here?
Its IC50 is 0.202 µM.

`O=C1COc2ccc(N3CC(CCNCC4Cc5ccnc(Cl)c5C4)OC3=O)nc2N1` (stereo not shown) [Example 86, 6-[5-[2-[(1-chloro-6,7-dihydro-5H-cyclopenta[c]pyridin-6-yl)methylamino]ethyl]-2-oxo-1,3-oxazolidin-3-yl]-4H-pyrido[3,2-b][1,4]oxazin-3-one] was tested. Which IC50 did it give?
The IC50 was 0.134 µM.

`NCCOc1cc(Cl)c2c(c1)CC(CNCCC1CN(c3ccc4c(n3)NC(=O)CO4)C(=O)O1)C2` (stereo not shown) [Example 177, 6-[5-[2-[[6-(2-aminoethoxy)-4-chloro-2,3-dihydro-1H-inden-2-yl]methylamino]ethyl]-2-oxo-1,3-oxazolidin-3-yl]-4H-pyrido[3,2-b][1,4]oxazin-3-one] was tested. Which IC50 did it give?
The IC50 was under 0.0977 µM.

same assay, conditions: strain Escherichia coli ATCC 25922; 10-point broth dilution, optical density at 600 nm over 16 h; read-out: Escherichia coli growth inhibition IC50

For `N#Cc1cccc2c1CC(CNC1CCC3C(C1)OC(=O)N3c1ccc3c(n1)NC(=O)CO3)C2` (racemic) [Example 99, 2-[[[rac-3a,7a-cis-6,7a-trans-2-oxo-3-(3-oxo-4H-pyrido[3,2-b][1,4]oxazin-6-yl)-3a,4,5,6,7,7a-hexahydro-1,3-benzoxazol-6-yl]amino]methyl]-2,3-dihydro-1H-indene-4-carbonitrile; formic acid], which IC50 is on record?
The IC50 was 0.516 µM.
